Reference: patent publication US20070117743A1, “New antitumoral compounds” (priority 2003, published 2007)
Where two headings read alike, the source gives them in different places. Where a SMILES comes first, the peptide text is derived from it. Bridges are numbered along the chain shown (N, C = ends). [ ]: non-standard residue; d: D form. The star is where a group is joined. Hexanoyl(4S-Me) = CC[C@H](C)CCC(=O)*; d(aIle) = CC[C@H](C)[C@@H](N)C(=O)O; d(aThr) = C[C@@H](O)[C@@H](N)C(=O)O; dTic = O=C(O)[C@H]1Cc2ccccc2CN1; Orn = NCCC[C@H](N)C(=O)O; Dhb = C/C=C(\N)C(=O)O

Assays:
Format in all cases: cell-based, human
A-549 = test: SRB colorimetric assay of cell growth and viability, A-549; conditions: 48 hours exposure; for GI50: read-out: GI50 A-549; for CC50: read-out: LC50 A-549
SK-MEL-28 = test: SRB colorimetric assay of cell growth and viability, SK-MEL-28; conditions: 48 hours exposure; for CC50: read-out: LC50 MEL-28
HT-29 = test: SRB colorimetric assay of cell growth and viability, HT-29; conditions: 48 hours exposure; for GI50: read-out: GI50 HT-29; for CC50: read-out: LC50 HT-29
LoVo = test: SRB colorimetric assay of cell growth and viability, LoVo; conditions: 48 hours exposure; for CC50: read-out: LC50 LOVO
DU-145 = test: SRB colorimetric assay of cell growth and viability, DU-145; conditions: 48 hours exposure
LNCaP = test: SRB colorimetric assay of cell growth and viability, LNCaP; conditions: 48 hours exposure; for GI50: read-out: GI50 LN-caP; for CC50: read-out: LC50 LN-caP
Source text: The finality of this assay is to interrupt the growth of a “in vitro” tumor cell culture by means a continued exhibition of the cells to the sample to be testing.
This form of the assay employs 96 well cell culture microplates of 9 mm diameter (Faircloth, 1988; Mosmann, 1983). Most of the cell lines are obtained from American Type Culture Collection (ATCC) derived from different human cancer types.
Cells are maintained in RPMI 1640 10% FBS, supplemented with 0.1 g/l penicillin and 0.1 g/l streptomycin sulfate and then incubated at 37° C., 5% CO2 and 98% humidity. For the experiments, cells were harvested from subconfluent cultures using trypsin and resuspended in fresh medium before plating.
Cells are seeded in 96 well microtiter plates, at 5×10^3 cells per well in aliquots of 195 μL medium, and they are allowed to attach to the plate surface by growing in drug free medium for 18 hours. Afterward, samples are added in aliquots of 5 μL in a ranging from 10 to 10^−8 μg/mL, dissolved in DMSO:EtOH:PBS (0.5:0.5:99). After 48 hours exposure, the antitumor effect are measured by the SRB methodology: cells are fixed by adding 50 μL of cold 50% (wt/vol) trichloroacetic acid (TCA) and incubating for 60 minutes at 4° C. Plates are washed with deionized water and dried. One hundred μL of SRB solution (0.4% wt/vol in 1% acetic acid) is added to each microtiter well and incubated for 10 minutes at room temperature. Unbound SRB is removed by washing with 1% acetic acid. Plates are air dried and bound stain is solubilized with Tris buffer. Optical densities are read on a automated spectrophotometric plate reader at a single wavelength of 490 nm.
The values for mean+/− SD of data from triplicate wells are calculated. Some parameters for cellular responses can be calculated: GI=growth inhibition, TGI=total growth inhibition (cytostatic effect) and LC=cell killing (cytotoxic effect).

SK-BR-3 = test: SRB colorimetric assay of cell growth and viability, SK-BR-3; conditions: 48 hours exposure
IGROV-1 = test: SRB colorimetric assay of cell growth and viability, IGROV-1; conditions: 48 hours exposure
IGROV-ET = test: SRB colorimetric assay of cell growth and viability, IGROV-ET; conditions: 48 hours exposure; for CC50: read-out: LC50 IGROV-ET
HeLa = test: SRB colorimetric assay of cell growth and viability, HeLa; conditions: 48 hours exposure; for CC50: read-out: LC50 HELA
HeLa-APL = test: SRB colorimetric assay of cell growth and viability, HeLa-APL; conditions: 48 hours exposure; for CC50: read-out: LC50 HELA-APL
K-562 = test: SRB colorimetric assay of cell growth and viability, K-562; conditions: 48 hours exposure; for CC50: read-out: LC50 K-562
PANC-1 = test: SRB colorimetric assay of cell growth and viability, PANC-1; conditions: 48 hours exposure; for CC50: read-out: LC50 PANC-1
LoVo-Dox = test: SRB colorimetric assay of cell growth and viability, LoVo-Dox; conditions: LOVO-DOX, 48 hours exposure
Summary of the method: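 Sulforhodamine B assay run after 48 h of continuous drug contact; cells seeded 5×10^3/well in RPMI 1640 10% FBS, attached 18 h. Triplicate OD490 values give cytostatic (TGI), cytotoxic (LC) and GI parameters.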

SMILES: C/C=C1\NC(=O)[C@H](Cc2ccccc2)NC(=O)[C@@H](C(C)C)NC(=O)[C@@H]([C@@H](C)CC)NC(=O)[C@H](NC(=O)[C@H](NC(=O)[C@H](CCCN)NC(=O)[C@H]2CCCN2C(=O)[C@H](NC(=O)[C@@H](NC(=O)[C@@H](NC(=O)[C@H](NC(=O)CCCCCCCCCCCCCCCCCCC)C(C)C)[C@@H](C)O)C(C)C)C(C)C)[C@@H](C)CC)[C@@H](C)OC(=O)[C@H](C(C)C)NC1=O [Compound 13, [Icos^14]-KF]
- TGI A-549 (A-549): 2.13E−06 Molar
- GI50 (A-549): 1.18 µM
- CC50 (A-549): 3.82 µM
- GI50 (SK-MEL-28): 1.25 µM
- TGI MEL-28 (SK-MEL-28): 2.21E−06 Molar
- CC50 (SK-MEL-28): 3.93 µM
- TGI HT-29 (HT-29): 2.32E−06 Molar
- GI50 (HT-29): 1.26 µM
- CC50 (HT-29): 4.28 µM
- GI50 (LoVo): 0.903 µM
- TGI LOVO (LoVo): 1.79E−06 Molar
- CC50 (LoVo): 3.58 µM
- GI50 (DU-145): 1.28 µM
- LC50 (concentration causing 50% net cell kill) (DU-145): 4.04 µM
- TGI DU-145 (DU-145): 2.28E−06 Molar
- TGI LN-caP (LNCaP): 2.39E−06 Molar
- GI50 (LNCaP): 1.21 µM
- CC50 (LNCaP): 4.73 µM
- GI50 (SK-BR-3): 0.861 µM
- LC50 (SK-BR-3): 3.99 µM
- TGI SK-BR-3 (SK-BR-3): 1.86E−06 Molar
- GI50 (IGROV-1): 1.36 µM
- LC50 (concentration causing 50% net cell killing) (IGROV-1): 4.68 µM
- TGI IGROV (IGROV-1): 2.52E−06 Molar
- GI50 (IGROV-ET): 1.66 µM
- TGI IGROV-ET (IGROV-ET): 2.81E−06 Molar
- CC50 (IGROV-ET): 4.79 µM
- GI50 (HeLa): 1.4 µM
- TGI HELA (HeLa): 2.71E−06 Molar
- CC50 (HeLa): 5.25 µM
- GI50 (HeLa-APL): 1.25 µM
- CC50 (HeLa-APL): 3.98 µM
- GI50 (K-562): 1.23 µM
- TGI K-562 (K-562): 2.42E−06 Molar
- CC50 (K-562): 4.71 µM
- GI50 (PANC-1): 2.02 µM
- TGI PANC-1 (PANC-1): 5.48E−06 Molar
- CC50 (PANC-1): 6.02 µM

SMILES: C/C=C1\NC(=O)[C@H](Cc2ccccc2)NC(=O)[C@@H](C(C)C)NC(=O)[C@@H]([C@@H](C)CC)NC(=O)[C@H](NC(=O)[C@H](NC(=O)[C@H](CCCN)NC(=O)[C@H]2Cc3ccccc3CN2C(=O)[C@H](NC(=O)[C@@H](NC(=O)[C@@H](NC(=O)[C@H](NC(=O)CC[C@@H](C)CC)C(C)C)[C@@H](C)O)C(C)C)C(C)C)[C@@H](C)CC)[C@@H](C)OC(=O)[C@H](C(C)C)NC1=O [Compound 61, [D-Tic^9, (4S)-MeHex^14]-KF] ({Hexanoyl(4S-Me)}-[dV]TV[dV][dTic][Orn][d(aIle)][d(aThr)][d(aIle)][dV]F[Dhb]V; ester 8-C)
- TGI A-549 (A-549; A-549): 6.49E−06 Molar
- GI50 (A-549; A-549): 2.87 µM
- CC50 (A-549; A-549): ≥ 6.49 µM
- GI50 (SK-MEL-28; SRB): 3.79 µM
- TGI MEL-28 (SK-MEL-28; SRB): 6.49E−06 Molar
- CC50 (SK-MEL-28; SRB): ≥ 6.49 µM
- TGI HT-29 (HT-29; HT-29): 2.25E−06 Molar
- GI50 (HT-29; HT-29): 1.18 µM
- CC50 (HT-29; HT-29): 4.26 µM
- GI50 (LoVo; LOVO): 1.2 µM
- TGI LOVO (LoVo; LOVO): 2.65E−06 Molar
- CC50 (LoVo; LOVO): 5.83 µM
- GI50 (LoVo-Dox): 1.17 µM
- TGI LOVO-DOX (LoVo-Dox): 2.71E−06 Molar
- CC50 (LoVo-Dox; read-out: LC50 LOVO-DOX): 6.28 µM
- GI50 (DU-145; SRB): 1.72 µM
- LC50 (concentration causing 50% net cell kill) (DU-145; SRB): ≥ 6.49 µM
- TGI DU-145 (DU-145; SRB): 4.24E−06 Molar
- TGI LN-caP (LNCaP; SRB): 2.40E−06 Molar
- GI50 (LNCaP; SRB): 0.921 µM
- CC50 (LNCaP; SRB): 6.26 µM
- GI50 (IGROV-1; SRB): 1.36 µM
- LC50 (concentration causing 50% net cell killing) (IGROV-1; SRB): 5.98 µM
- TGI IGROV (IGROV-1; SRB): 2.86E−06 Molar
- GI50 (IGROV-ET; SRB): 1.44 µM
- TGI IGROV-ET (IGROV-ET; SRB): 3.30E−06 Molar
- CC50 (IGROV-ET; SRB): ≥ 6.49 µM
- GI50 (HeLa; HELA): 3.48 µM
- TGI HELA (HeLa; HELA): 6.49E−06 Molar
- CC50 (HeLa; HELA): ≥ 6.49 µM
- GI50 (HeLa-APL; HELA-APL): 4.93 µM
- TGI HELA-APL (HeLa-APL; HELA-APL): 6.49E−06 Molar
- CC50 (HeLa-APL; HELA-APL): ≥ 6.49 µM
- GI50 (K-562; K-562): ≥ 6.49 µM
- TGI K-562 (K-562; K-562): 6.49E−06 Molar
- CC50 (K-562; K-562): ≥ 6.49 µM
- GI50 (PANC-1; PANC-1): ≥ 6.49 µM
- TGI PANC-1 (PANC-1; PANC-1): 6.49E−06 Molar
- CC50 (PANC-1; PANC-1): ≥ 6.49 µM
